Assay results as given in ChEMBL document CHEMBL1201862, “PubChem BioAssay data set” (2004).
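All cell lines were grown in 96-well plates and treated with compound for 48 hours. GI50 is the concentration that inhibits growth by half.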 The source made the active and inactive calls. Rule as the data show it: active = GI50 up to about 1.1 µM and inactive = higher.

Columns and labels:
Assay in all cases: inhibition of tumour cell growth, NCI panel, 48 h
[1] = tested on: SK-MEL-28
[2] = tested on: SNB-19
[3] = tested on: UACC-62
[4] = tested on: EKVX
[5] = tested on: SK-OV-3
[6] = tested on: NCI-H226
[7] = tested on: COLO 205
[8] = tested on: OVCAR-8
[9] = tested on: HCT-116
[10] = tested on: UO-31
[11] = tested on: MOLT-4
[12] = tested on: OVCAR-5
[13] = tested on: MDA-MB-231
[14] = tested on: Hs-578T
[15] = tested on: IGROV-1
[16] = tested on: OVCAR-3
[17] = tested on: NCI-H460

Structure (SMILES)	GI50 [1]	GI50 [2]	GI50 [3]	GI50 [4]	GI50 [5]	GI50 [6]	GI50 [7]	GI50 [8]	GI50 [9]	GI50 [10]	GI50 [11]	GI50 [12]	GI50 [13]	GI50 [14]	GI50 [15]	GI50 [16]	GI50 [17]
NC(Cc1c[nH]c2ccc([N+](=O)[O-])cc12)C(=O)O (configuration not stated)	> 100 µM (inactive)	> 100 µM (inactive)	> 100 µM (inactive)	> 100 µM (inactive)	> 100 µM (inactive)	> 100 µM (inactive)	> 100 µM (inactive)	> 100 µM (inactive)	> 100 µM (inactive)	> 100 µM (inactive)	> 100 µM (inactive)	> 100 µM (inactive)	> 100 µM (inactive)	24.7 µM (inactive)	> 100 µM (inactive)	> 100 µM (inactive)	
CN(C)CCn1c(=O)c2ccc(NCCCN(C)CCCNc3ccc4c(=O)n(CCN(C)C)c(=O)n5c6ccc(O)cc6c(=O)c3c45)c3c(=O)c4cc(O)ccc4n(c1=O)c23	0.0841 µM (active)	< 0.01 µM (active)	< 0.0116 µM (active)	0.0933 µM (active)		< 0.01 µM (active)	< 0.01 µM (active)	< 0.01 µM (active)	< 0.01 µM (active)	0.0107 µM (active)	< 0.01 µM (active)	0.0442 µM (active)	< 0.0244 µM (active)	0.0234 µM (active)	< 0.01 µM (active)	0.059 µM (active)	< 0.01 µM (active)
COC(C[C@H]1CCCC[C@]1(O)/C(=C\CO[Si](C(C)C)(C(C)C)C(C)C)Sc1ccccc1)OC	50.6 µM (inactive)	26.7 µM (inactive)	> 100 µM (inactive)	37.4 µM (inactive)	> 100 µM (inactive)	23.2 µM (inactive)	20.9 µM (inactive)	49.8 µM (inactive)	22.5 µM (inactive)	42.2 µM (inactive)	17.3 µM (inactive)	38.4 µM (inactive)	18.9 µM (inactive)	29.4 µM (inactive)	52.7 µM (inactive)		60 µM (inactive)
COc1ccc(/C=C(\C#N)c2nc3ccccc3c(=O)[nH]2)cc1	> 100 µM (inactive)	12.9 µM (inactive)	18.4 µM (inactive)	59.6 µM (inactive)	11.3 µM (inactive)	27 µM (inactive)	73.6 µM (inactive)	10.6 µM (inactive)	5.22 µM (inactive)	26.5 µM (inactive)	> 100 µM (inactive)	> 100 µM (inactive)	4.84 µM (inactive)	15.1 µM (inactive)	30.3 µM (inactive)		16.6 µM (inactive)
CCSc1s/c(=N/c2ccc(/N=c3\sc(C)c(SC)s3)cc2)sc1-c1ccc(C)cc1	> 100 µM (inactive)	> 100 µM (inactive)	> 100 µM (inactive)	> 100 µM (inactive)	> 100 µM (inactive)		> 100 µM (inactive)	> 100 µM (inactive)	> 100 µM (inactive)	> 100 µM (inactive)	> 100 µM (inactive)	> 100 µM (inactive)	> 100 µM (inactive)	> 100 µM (inactive)	> 100 µM (inactive)	> 100 µM (inactive)	> 100 µM (inactive)
Cc1ccc2c(c1C)CC1(Cc3ccc(C)c(C)c3C1=O)C2=O (configuration not stated)	> 100 µM (inactive)	59.6 µM (inactive)	> 100 µM (inactive)	44.2 µM (inactive)		52.1 µM (inactive)	> 100 µM (inactive)	61.5 µM (inactive)	> 100 µM (inactive)	> 100 µM (inactive)	> 100 µM (inactive)	> 100 µM (inactive)	30.8 µM (inactive)	91.8 µM (inactive)	21.7 µM (inactive)	> 100 µM (inactive)	> 100 µM (inactive)
O=C(O)CSC(NC(=O)C(C(F)(F)F)C(F)(F)F)(C(F)(F)F)C(F)(F)F	> 100 µM (inactive)	> 100 µM (inactive)		> 100 µM (inactive)	> 100 µM (inactive)		> 100 µM (inactive)	23.2 µM (inactive)	> 100 µM (inactive)	> 100 µM (inactive)	> 100 µM (inactive)	> 100 µM (inactive)		> 100 µM (inactive)	> 100 µM (inactive)		
OC1CC2CCCN(CCc3c1[nH]c1ccccc31)C2 (configuration not stated)	> 100 µM (inactive)	> 100 µM (inactive)	86.7 µM (inactive)		> 100 µM (inactive)	> 100 µM (inactive)	> 100 µM (inactive)	> 100 µM (inactive)	> 100 µM (inactive)	> 100 µM (inactive)			89.3 µM (inactive)	> 100 µM (inactive)			> 100 µM (inactive)
Cc1cc([N+](=O)[O-])ccc1/N=N/C(=O)NNc1ccc([N+](=O)[O-])cc1C	16.4 µM (inactive)	15.6 µM (inactive)	13.5 µM (inactive)			15.3 µM (inactive)		14.7 µM (inactive)	11.2 µM (inactive)	11.8 µM (inactive)	15.5 µM (inactive)	17.1 µM (inactive)	> 10 µM (inactive)		19.6 µM (inactive)	18.8 µM (inactive)	17.6 µM (inactive)
O=S(=O)(C1=CC(S(=O)(=O)c2ccccc2)COC1)c1ccccc1 (configuration not stated)	> 100 µM (inactive)	> 100 µM (inactive)	> 100 µM (inactive)	> 100 µM (inactive)	> 100 µM (inactive)		> 100 µM (inactive)	> 100 µM (inactive)	> 100 µM (inactive)	> 100 µM (inactive)	> 100 µM (inactive)				> 100 µM (inactive)	> 100 µM (inactive)	> 100 µM (inactive)
CN(C)C1(N(C)C)Oc2c(c(=O)n(C)c(=O)n2C)C(c2ccccc2Br)C1(F)F (configuration not stated)	> 100 µM (inactive)	> 100 µM (inactive)	> 100 µM (inactive)	> 100 µM (inactive)	> 100 µM (inactive)	> 100 µM (inactive)	> 100 µM (inactive)		> 100 µM (inactive)	> 100 µM (inactive)	> 100 µM (inactive)	> 100 µM (inactive)	> 100 µM (inactive)			> 100 µM (inactive)	> 100 µM (inactive)
CS(=O)(=O)OCCCSCCSCCCOS(C)(=O)=O	> 100 µM (inactive)	> 100 µM (inactive)	> 100 µM (inactive)	> 100 µM (inactive)	> 100 µM (inactive)		> 100 µM (inactive)	> 100 µM (inactive)	> 100 µM (inactive)	> 100 µM (inactive)	> 100 µM (inactive)	> 100 µM (inactive)	> 100 µM (inactive)		> 100 µM (inactive)	> 100 µM (inactive)	> 100 µM (inactive)
CC(=O)/C=c1\[nH]/c(=C\C=C\c2ccccc2)c(=O)n1/C=C1\C(=O)Oc2ccccc2C1=O	> 100 µM (inactive)	> 100 µM (inactive)	> 100 µM (inactive)	40.6 µM (inactive)	> 100 µM (inactive)	> 100 µM (inactive)	> 100 µM (inactive)	> 100 µM (inactive)	> 100 µM (inactive)	> 100 µM (inactive)	> 100 µM (inactive)	> 100 µM (inactive)	> 100 µM (inactive)	> 100 µM (inactive)	> 100 µM (inactive)	> 100 µM (inactive)	
Cn1c2c(c3ccccc31)CCN1C(=O)CCC21 (configuration not stated)	> 10 µM (inactive)	> 10 µM (inactive)		> 10 µM (inactive)	> 10 µM (inactive)	> 10 µM (inactive)	> 10 µM (inactive)	> 10 µM (inactive)		> 10 µM (inactive)	> 10 µM (inactive)	> 10 µM (inactive)	> 10 µM (inactive)	> 10 µM (inactive)	> 10 µM (inactive)	> 10 µM (inactive)	> 10 µM (inactive)
CC#CC#C/C=C1/C=CC2(CCCCO2)O1 (configuration not stated)	> 100 µM (inactive)	40.6 µM (inactive)	86.5 µM (inactive)	> 100 µM (inactive)	> 100 µM (inactive)	> 100 µM (inactive)	71.1 µM (inactive)	> 100 µM (inactive)	> 100 µM (inactive)	42.9 µM (inactive)	33.5 µM (inactive)	> 100 µM (inactive)	> 100 µM (inactive)	> 100 µM (inactive)	70.1 µM (inactive)		> 100 µM (inactive)
Cn1/c(=N\N=C(\CNCCO)[C@@H](O)[C@@H]2OC(c3ccccc3)OC[C@H]2O)sc2ccccc21 (some centres not stated)	17.3 µM (inactive)	12.8 µM (inactive)	16.9 µM (inactive)	15.4 µM (inactive)	18.4 µM (inactive)		15.5 µM (inactive)	19.2 µM (inactive)	16 µM (inactive)	15.4 µM (inactive)	14.9 µM (inactive)	18.2 µM (inactive)	15.2 µM (inactive)	14.8 µM (inactive)	15.8 µM (inactive)	16.4 µM (inactive)	21.5 µM (inactive)
C[C@H]1[C@H](C)CC[C@]2(C)CC[C@]3(C)C(=C[C@@H](O)[C@@H]4[C@@]5(C)[C@H](O)[C@@H](O)[C@H](O)C(C)(C)[C@@H]5CC[C@]43C)[C@H]12		> 100 µM (inactive)	> 100 µM (inactive)		> 100 µM (inactive)		> 100 µM (inactive)	> 100 µM (inactive)	> 100 µM (inactive)	> 100 µM (inactive)	82.4 µM (inactive)	> 100 µM (inactive)	> 100 µM (inactive)	> 100 µM (inactive)	67.8 µM (inactive)	77.1 µM (inactive)	> 100 µM (inactive)
Nc1ccc(C(=O)O)cc1 [AMINOBENZOIC ACID]	> 100 µM (inactive)	> 100 µM (inactive)		> 100 µM (inactive)		> 100 µM (inactive)	> 100 µM (inactive)	> 100 µM (inactive)	> 100 µM (inactive)	> 100 µM (inactive)	> 100 µM (inactive)	> 100 µM (inactive)	28.1 µM (inactive)	> 100 µM (inactive)	> 100 µM (inactive)	> 100 µM (inactive)	> 100 µM (inactive)
